pKi: −log10 of the molar value.
Experiments:
[1] = target: T1, human adenosine A2A receptor (Homo sapiens, UniProt P29274); test: Human adenosine A2A receptor [3H]-SCH-58261 binding assay; conditions: for pKi: affinity to human adenosine A2A receptor, read-out: Ki HA2A; for selectivity (A1/A2a): calculated ratio of the affinity to the HA1 receptor to the HA2a receptor
T1 construct: expressed in transfected cells; host or cells: CHO cells, Semliki Forest virus expression system; membrane preparation
T1 sequence (P29274 whole entry): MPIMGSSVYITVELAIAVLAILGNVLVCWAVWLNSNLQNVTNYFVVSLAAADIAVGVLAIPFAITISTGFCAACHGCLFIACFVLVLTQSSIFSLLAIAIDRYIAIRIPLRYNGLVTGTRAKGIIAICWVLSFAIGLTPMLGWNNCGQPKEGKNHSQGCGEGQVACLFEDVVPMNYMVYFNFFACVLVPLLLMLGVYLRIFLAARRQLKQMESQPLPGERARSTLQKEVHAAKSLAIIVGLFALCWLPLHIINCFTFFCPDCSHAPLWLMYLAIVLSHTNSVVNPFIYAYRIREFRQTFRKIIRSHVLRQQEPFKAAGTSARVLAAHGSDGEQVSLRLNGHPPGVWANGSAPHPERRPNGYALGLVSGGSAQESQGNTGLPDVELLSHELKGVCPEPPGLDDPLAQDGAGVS
Protocol: Human Adenosine A2A Receptor
The human adenosine A2A receptor was recombinantly expressed in chinese hamster ovary (CHO) cells using the semliki forest virus expression system. Cells were harvested, washed twice by centrifugation, homogenized and again washed by centrifugation. The final washed membrane pellet was suspended in a Tris (50 mM) buffer containing 120 mM NaCl, 5 mM KCl, 2 mM CaCl2 and 10 MM MgCl2 (pH 7.4) (buffer A). […] Compounds were tested at 10 concentrations from 10 μM-0.3 nM. All assays were conducted in duplicate and repeated at least two times. Assay plates were incubated for 1 hour at room temperature before centrifugation and then bound ligand determined using a Packard Topcount scintillation counter. IC50 values were calculated using a non-linear curve fitting program and Ki values calculated using the Cheng-Prussoff equation.

HA1 adenosine receptor = target: T2, HA1 adenosine receptor (Homo sapiens, UniProt P30542); test: Human adenosine A1 receptor affinity (Ki hA1); format: binding; conditions: affinity to human adenosine A1 receptor
T2 sequence (P30542 1-326): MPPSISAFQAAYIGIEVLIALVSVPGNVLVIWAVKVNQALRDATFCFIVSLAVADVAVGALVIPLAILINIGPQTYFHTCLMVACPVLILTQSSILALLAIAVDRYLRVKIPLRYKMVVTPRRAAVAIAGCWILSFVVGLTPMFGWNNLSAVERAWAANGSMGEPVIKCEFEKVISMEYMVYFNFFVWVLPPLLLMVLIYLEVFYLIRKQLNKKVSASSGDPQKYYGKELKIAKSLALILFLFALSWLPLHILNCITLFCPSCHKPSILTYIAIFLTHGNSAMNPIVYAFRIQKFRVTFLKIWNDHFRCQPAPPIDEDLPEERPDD

Row | Structure (SMILES) | pKi [1] | selectivity (A1/A2a) [1] | pKi (HA1 adenosine receptor)
1 | COc1ccccc1CCNC(=O)c1cc(N)n2nc(-c3ccccn3)nc2c1 [Example 45, 5-Amino-2-pyridin-2-yl-[1,2,4]triazolo[1,5-a]pyridine-7-carboxylic acid [2-(2-methoxy-phenyl)-ethyl]-amide] | 7.27 | 2.4 | 6.89
2 | Nc1cc(C(=O)NCc2ccccc2)cc2nc(-c3ccccn3)nn12 [Example 46, 5-Amino-2-pyridin-2-yl-[1,2,4]triazolo[1,5-a]pyridine-7-carboxylic acid benzylamide] | 7.21 | 3.0 | 6.74
3 | CCCCCCNC(=O)c1cc(N)n2nc(-c3ccccn3)nc2c1 [Example 47, 5-Amino-2-pyridin-2-yl-[1,2,4]triazolo[1,5-a]pyridine-7-carboxylic acid hexylamide] | 7.43 | 8.4 | 6.50
4 | Nc1cc(C(=O)NC2CCCCC2)cc2nc(-c3ccccn3)nn12 [Example 48, 5-Amino-2-pyridin-2-yl-[1,2,4]triazolo[1,5-a]pyridine-7-carboxylic acid cyclohexylamide] | 7.21 | 5.9 | 6.44
5 | CCCCNC(=O)c1cc(N)n2nc(-c3ccccn3)nc2c1 [Example 49, 5-Amino-2-pyridin-2-yl-[1,2,4]triazolo[1,5-a]pyridine-7-carboxylic acid butylamide] | 7.46 | 7.1 | 6.62
6 | Nc1cc(C(=O)NCCc2ccccc2Cl)cc2nc(-c3ccccn3)nn12 [Example 50, 5-Amino-2-pyridin-2-yl-[1,2,4]triazolo[1,5-a]pyridine-7-carboxylic acid [2-(2-chloro-phenyl)-ethyl]-amide] | 6.92 | 1.0 | 6.91
7 | COc1ccc(-c2nc3cc(C(=O)N(Cc4ccccc4)Cc4ccccc4)cc(N)n3n2)s1 [Example 51, 5-Amino-2-(5-methoxy-thiophen-2-yl)-[1,2,4]triazolo[1,5-a]pyridine-7-carboxylic acid dibenzylamide] | 7.65 | 5.8 | 6.89
8 | COc1ccc(-c2nc3cc(C(=O)NCc4ccccc4Br)cc(N)n3n2)s1 [Example 52, 5-Amino-2-(5-methoxy-thiophen-2-yl)-[1,2,4]triazolo[1,5-a]pyridine-7-carboxylic acid 2-bromo-benzylamide] | 6.97 | 0.8 | 7.07
9 | COc1ccc(-c2nc3cc(C(=O)N(Cc4ccccc4)C(C)C)cc(N)n3n2)s1 [Example 55, 5-Amino-2-(5-methoxy-thiophen-2-yl)-[1,2,4]triazolo[1,5-a]pyridine-7-carboxylic acid benzyl-isopropyl-amide] | 7.55 | 2.7 | 7.12
10 | COc1ccc(-c2nc3cc(C(=O)NCc4ccccc4Cl)cc(N)n3n2)s1 [Example 56, 5-Amino-2-(5-methoxy-thiophen-2-yl)-[1,2,4]triazolo[1,5-a]pyridine-7-carboxylic acid 2-chloro-benzylamide] | 7.09 | 1.1 | 7.06
11 | COc1ccc(-c2nc3cc(C(=O)NCc4ccccc4OC)cc(N)n3n2)s1 [Example 58, 5-Amino-2-(5-methoxy-thiophen-2-yl)-[1,2,4]triazolo[1,5-a]pyridine-7-carboxylic acid 2-methoxy-benzylamide] | 7.14 | 0.7 | 7.28
12 | CCN(Cc1ccccc1)C(=O)c1cc(N)n2nc(-c3ccc(OC)s3)nc2c1 [Example 59, 5-Amino-2-(5-methoxy-thiophen-2-yl)-[1,2,4]triazolo[1,5-a]pyridine-7-carboxylic acid benzyl-ethyl-amide] | 7.37 | 2.5 | 6.97
13 | COc1ccc(-c2nc3cc(C(=O)NCc4ccccc4)cc(N)n3n2)s1 [Example 62, 5-Amino-2-(5-methoxy-thiophen-2-yl)-[1,2,4]triazolo[1,5-a]pyridine-7-carboxylic acid benzylamide] | 6.76 | 0.6 | 6.95
14 | CCCCCCNC(=O)c1cc(N)n2nc(-c3ccc(OC)s3)nc2c1 [Example 63, 5-Amino-2-(5-methoxy-thiophen-2-yl)-[1,2,4]triazolo[1,5-a]pyridine-7-carboxylic acid hexylamide] | 6.74 | 1.4 | 6.61
15 | COc1ccc(-c2nc3cc(C(=O)NC4CCCCC4)cc(N)n3n2)s1 [Example 64, 5-Amino-2-(5-methoxy-thiophen-2-yl)-[1,2,4]triazolo[1,5-a]pyridine-7-carboxylic acid cyclohexylamide] | 6.64 | 1.0 | 6.65
16 | CCN(C(=O)c1cc(N)n2nc(-c3ccc(OC)s3)nc2c1)C(C)C [Example 65, 5-Amino-2-(5-methoxy-thiophen-2-yl)-[1,2,4]triazolo[1,5-a]pyridine-7-carboxylic acid ethyl-isopropyl-amide] | 7.29 | 4.1 | 6.68
17 | COc1ccc(-c2nc3cc(C(=O)N4CCCCC4)cc(N)n3n2)s1 [Example 66, [5-Amino-2-(5-methoxy-thiophen-2-yl)-[1,2,4]triazolo[1,5-a]pyridin-7-yl]-piperidin-1-yl-methanone] | 6.76 | 3.6 | 6.21
18 | CCCCNC(=O)c1cc(N)n2nc(-c3ccc(OC)s3)nc2c1 [Example 67, 5-Amino-2-(5-methoxy-thiophen-2-yl)-[1,2,4]triazolo[1,5-a]pyridine-7-carboxylic acid butylamide] | 7.00 | 1.4 | 6.87

Second part, the compound after the results:

Row | pKi [1] | selectivity (A1/A2a) [1] | pKi (HA1 adenosine receptor) | Structure (SMILES)
19 | 6.77 | 4.2 | 6.14 | CCN(CC)C(=O)c1cc(N)n2nc(-c3ccc(OC)s3)nc2c1 [Example 68, 5-Amino-2-(5-methoxy-thiophen-2-yl)-[1,2,4]triazolo[1,5-a]pyridine-7-carboxylic acid diethylamide]
20 | 6.95 | 1.3 | 6.83 | COc1ccc(-c2nc3cc(C(=O)NC4CCC4)cc(N)n3n2)s1 [Example 70, 5-Amino-2-(5-methoxy-thiophen-2-yl)-[1,2,4]triazolo[1,5-a]pyridine-7-carboxylic acid cyclobutylamide]
21 | 7.19 | 2.8 | 6.74 | CCCNC(=O)c1cc(N)n2nc(-c3ccc(OC)s3)nc2c1 [Example 71, 5-Amino-2-(5-methoxy-thiophen-2-yl)-[1,2,4]triazolo[1,5-a]pyridine-7-carboxylic acid propylamide]
22 | 7.43 | 3.6 | 6.87 | CCCCN(Cc1ccccc1)C(=O)c1cc(N)n2nc(-c3ccc(OC)s3)nc2c1 [Example 73, 5-Amino-2-(5-methoxy-thiophen-2-yl)-[1,2,4]triazolo[1,5-a]pyridine-7-carboxylic acid benzyl-butyl-amide]
23 | 7.58 | 0.6 | 7.80 | COc1ccc(-c2nc3cc(C(=O)N(CCc4ccccc4)Cc4ccccc4)cc(N)n3n2)s1 [Example 75, 5-Amino-2-(5-methoxy-thiophen-2-yl)-[1,2,4]triazolo[1,5-a]pyridine-7-carboxylic acid benzyl-phenethyl-amide]
24 | 6.94 | 2.5 | 6.53 | COc1ccc(-c2nc3cc(C(=O)N(C)CCc4ccccc4)cc(N)n3n2)s1 [Example 77, 5-Amino-2-(5-methoxy-thiophen-2-yl)-[1,2,4]triazolo[1,5-a]pyridine-7-carboxylic acid methyl-phenethyl-amide]
25 | 6.41 | 0.3 | 7.01 | COc1ccc(-c2nc3cc(C(=O)NCCc4ccccc4Cl)cc(N)n3n2)s1 [Example 78, 5-Amino-2-(5-methoxy-thiophen-2-yl)-[1,2,4]triazolo[1,5-a]pyridine-7-carboxylic acid [2-(2-chloro-phenyl)-ethyl]-amide]
26 | 6.82 | 9.2 | 5.85 | Nc1cc(C(=O)NCc2ccccc2Br)cc2nc(-c3cccnc3)nn12 [Example 79, 5-Amino-2-pyridin-3-yl-[1,2,4]triazolo[1,5-a]pyridine-7-carboxylic acid 2-bromo-benzylamide]
27 | 6.55 | 13.4 | 5.42 | CCCCNC(=O)c1cc(N)n2nc(-c3cccnc3)nc2c1 [Example 80, 5-Amino-2-pyridin-3-yl-[1,2,4]triazolo[1,5-a]pyridine-7-carboxylic acid butylamide]
28 | 6.50 | 13.9 | 5.36 | Nc1cc(C(=O)NC2CCC2)cc2nc(-c3cccnc3)nn12 [Example 81, 5-Amino-2-pyridin-3-yl-[1,2,4]triazolo[1,5-a]pyridine-7-carboxylic acid cyclobutylamide]

Reference: patent publication US6506772B1, “Substituted [1,2,4]triazolo[1,5a]pyridine derivatives with activity as adenosine receptor ligands” (Hoffmann-La Roche Inc., priority 2000, dated 2003)
